Data published in patent US20190269703A1, “MATERIALS AND METHODS FOR TREATING CHRONIC COUGH” (Mayo Foundation for Medical Education and Research, priority 2016, published 2019).

Tests used:
[1] = tested on: postnasal drip; assay: Treatment of postnasal drip: nasal spray delivered into the nasal cavity, patient responses evaluated; format: in vivo, human; conditions: 34 μg/spray diphenhydramine in combination with an anticholinergic and a glucocorticosteroid (mometasone furoate 1.7 mg/5 mL, ipratropium bromide 1 mg/5 mL, diphenhydramine 1.7 mg/5 mL); two sprays to each nostril daily; evaluated after 4 to 6 weeks
Experimental: A composition including mometasone furoate (1.7 mg/5 mL), ipratropium bromide (1 mg/5 mL), and diphenhydramine (1.7 mg/5 mL) was prepared. A specially configured nasal atomizer having a large aerosol plume and a three inch stem was used to bypass the nasal valve area and deliver medication into the nasal cavity. Two sprays were administered to each nostril daily. Patient responses were evaluated after 4 to 6 weeks.

[2] = Sedation / patient tolerance of the nasal spray in use; format: in vivo, human; conditions: 34 micrograms/spray (or 69 μg daily) to each nostril, triple combination nasal spray; 15,000 units dispensed
Experimental: A specially configured nasal atomizer having a large aerosol plume and a three inch stem was used to bypass the nasal valve area and deliver medication into the nasal cavity. Two sprays were administered to each nostril daily. Patient responses were evaluated after 4 to 6 weeks.
34 micrograms/spray (or 69 μg daily) to each nostril is […] less than the lowest dose (12.5 milligrams) of oral diphenhydramine.

Compound: CN(C)CCOC(c1ccccc1)c1ccccc1 [Diphenhydramine, diphenhydramine]
- arresting postnasal drip [1]: effective
- sedation [2]: sedation has not been an issue
